Like-named read-outs stand apart in the source and are kept apart here.
Key:
[1] = Brain pharmacokinetics in mice; details: mouse
[2] = Brain pharmacokinetics in rats; details: rats, after CBZ i.p.
[3] = Plasma pharmacokinetics in mice
[4] = Plasma pharmacokinetics in rats; details: rats
[5] = CF-1, mouse, in vivo
in vivo [6] = details: CF-1, mouse, ip; for half-life: Plasma t1/2
in vivo [7] = details: CF-1, mouse, ip
in vivo [8] = details: Sprague Dawley, rat, ip
[9] = Sprague Dawley, rat, in vivo
[10] = system: adult Sprague-Dawley rats; test: Maximal electroshock; type: in vivo, rat; details: MES; for Efficacy in rats (number seizure protected /number tested): low dose i.p. (CLB 17, CBZ 3, VPA 165 mg/kg); for Seizure protection (in words): rats
[11] = Sprague Dawley, rat, in vivo; remark: listed apart in the source
[12] = CF-1, mouse, in vivo; remark: listed apart in the source
adult male CF-1 mice [13] = test: 6 Hz 44 mA seizure test in mice; type: in vivo, mouse
mice = details: mouse, cited from earlier work
adult male CF-1 mice [14] = details: mouse, 6 Hz 44 mA, i.p.; cited from earlier work
[15] = system: adult Sprague-Dawley rats; details: rat, MES, i.p.; cited from earlier work
[16] = system: male adult Sprague-Dawley rats; test: 6 Hz 80 V seizure test in rats; type: in vivo, rat; details: for Seizure protection (in words): rats, any time-point
in vivo [17] = details: Sprague Dawley, rat, ip, Brain t1/2
rats = details: rat, minimum motor impairment test, i.p.; cited from earlier work
[18] = metabolite after high parent dose i.p.: CLB 17, CBZ 40 mg/kg
[19] = metabolite after low parent dose i.p.: CLB 7, CBZ 7 mg/kg
[20] = mouse, metabolite after high parent dose i.p.: CLB 17, CBZ 40 mg/kg
[21] = mouse, metabolite after low parent dose i.p.: CLB 7, CBZ 7 mg/kg
[22] = high dose i.p. (CLB 17, VPA 570, LEV 500 mg/kg), time test 0.25 h
[23] = high dose i.p. (CLB 17, VPA 570, LEV 500 mg/kg), time test 0.5 h
[24] = high dose i.p. (CLB 17, VPA 570, LEV 500 mg/kg), time test 1 h
[25] = high dose i.p. (CLB 17, VPA 570, LEV 500 mg/kg), time test 2 h
[26] = high dose i.p. (CLB 17, VPA 570, LEV 500 mg/kg), time test 4 h
[27] = high dose i.p. (CLB 17, VPA 570, LEV 500 mg/kg), time test 8 h
[28] = low dose i.p. (CLB 7, VPA 260, LEV 20 mg/kg), time test 0.25 h
[29] = low dose i.p. (CLB 7, VPA 260, LEV 20 mg/kg), time test 0.5 h
[30] = low dose i.p. (CLB 7, VPA 260, LEV 20 mg/kg), time test 1 h
[31] = low dose i.p. (CLB 7, VPA 260, LEV 20 mg/kg), time test 2 h
[32] = low dose i.p. (CLB 7, VPA 260, LEV 20 mg/kg), time test 4 h
[33] = low dose i.p. (CLB 7, VPA 260, LEV 20 mg/kg), time test 8 h
[34] = mice, low dose i.p. (VPA 260, LEV 20 mg/kg)

## NC(=O)N1c2ccccc2C2OC2c2ccccc21 (stereo not shown) [CBZE, carbamazepine-10,11-epoxide]
[1]; [18]
  Brain/Plasma AUC ratio of active metabolite: 1.00
[1]; [19]
  Brain/Plasma AUC ratio of active metabolite: 1.20
[2]
  Brain half-life of metabolite: approximately 4 hrs
[3]; mice, high dose CBZ 40 mg/kg i.p., fold longer than CBZ
  Plasma half-life of CBZE relative to CBZ: ~ 3 fold
[3]; [20]
  Plasma t1/2 of metabolite: 239 min
[3]; [21]
  Plasma t1/2 of metabolite: 72 min
[4]; after CBZ i.p.
  CBZE plasma exposures as % of CBZ: approximately 70%
  Plasma half-life of metabolite: approximately 4 hrs

## O=C1CC(=O)N(c2ccccc2)c2cc(Cl)ccc2N1 [NCLB, N-desmethyl clobazam]
[1]; [18]
  Brain/Plasma AUC ratio of active metabolite: 1.64
[1]; [19]
  Brain/Plasma AUC ratio of active metabolite: 1.88
[3]; mice, after CLB i.p., fold greater than CLB
  NCLB concentrations relative to CLB: approximately 10 fold
[3]; mouse, after CLB i.p., fold greater than CLB
  Plasma AUC of NCLB relative to CLB: approximately 10 fold
[3]; [20]
  Plasma t1/2 of metabolite: 266 min
[3]; [21]
  Plasma t1/2 of metabolite: 385 min
[4]; plasma and brain, after CLB i.p., fold less than CLB
  NCLB concentrations relative to CLB: ~ 20 fold

## CCCC(CCC)C(=O)O [VPA, sodium valproate]
[5]
  Brain Dose Prop (AUC): 2.17
[5]; ip
  Brain t1/2: 76.8 min
In vivo [6]
  Tmax: 30 min
  half-life: 43.8 min
In vivo [6]; Plasma Tmax
  Tmax: 15 min
In vivo [7]
  Tmax: 30 min
In vivo [7]; Brain Tmax
  Tmax: 15 min
In vivo [7]; Brain t1/2
  half-life: 55.6 min
In vivo [8]; Plasma Tmax
  Tmax: 15 min
[9]
  Plasma Dose Prop (Cmax): 0.902
[9]; ip
  Time to total drug elimination (>97% drug eliminated): less than 4.5 hrs
[10]; time test 0.25 h
  Efficacy in rats (number seizure protected /number tested): 3/4
[10]; time test 0.5 h
  Efficacy in rats (number seizure protected /number tested): 3/4
[10]; time test 1 h
  Efficacy in rats (number seizure protected /number tested): 1/4
[10]; time test 2 h
  Efficacy in rats (number seizure protected /number tested): 0/4
[10]; time test 4 h
  Efficacy in rats (number seizure protected /number tested): 0/4
[10]; time test 8 h
  Efficacy in rats (number seizure protected /number tested): 0/4
[10]; high dose i.p. (CLB 37, VPA 315 mg/kg)
  Seizure protection (in words): full to moderate seizure protection
[10]; low dose i.p. (CLB 17, VPA 165 mg/kg)
  Seizure protection (in words): moderate protection
[11]
  Brain Dose Prop (AUC): 1.84
[12]
  Plasma Dose Prop (Cmax): 0.863
Adult male CF-1 mice [13]; [22]
  Efficacy in mice (number seizure protected/number tested): 4/4
Adult male CF-1 mice [13]; [23]
  Efficacy in mice (number seizure protected/number tested): 4/4
Adult male CF-1 mice [13]; [24]
  Efficacy in mice (number seizure protected/number tested): 4/4
Adult male CF-1 mice [13]; [25]
  Efficacy in mice (number seizure protected/number tested): 4/4
Adult male CF-1 mice [13]; [26]
  Efficacy in mice (number seizure protected/number tested): 0/4
Adult male CF-1 mice [13]; [27]
  Efficacy in mice (number seizure protected/number tested): 0/4
Adult male CF-1 mice [13]; [28]
  Efficacy in mice (number seizure protected/number tested): 4/4
Adult male CF-1 mice [13]; [29]
  Efficacy in mice (number seizure protected/number tested): 3/4
Adult male CF-1 mice [13]; [30]
  Efficacy in mice (number seizure protected/number tested): 0/4
Adult male CF-1 mice [13]; [31]
  Efficacy in mice (number seizure protected/number tested): 0/4
Adult male CF-1 mice [13]; [32]
  Efficacy in mice (number seizure protected/number tested): 0/4
Adult male CF-1 mice [13]; [33]
  Efficacy in mice (number seizure protected/number tested): 0/4
Adult male CF-1 mice [13]; mice, comparison of the two VPA dose levels
  Brain concentration needed for complete seizure protection: above 100 ng/mg
Adult male CF-1 mice [13]; mice, high dose i.p. (VPA 570 mg/kg), sustained only within 2 hrs
  Seizure protection (in words): maximal antiseizure efficacy
Adult male CF-1 mice [13]; [34]
  Seizure protection (in words): seizure protection was observed within the first hour
mice; in vivo, ip
  TD50 - high dose: 570 mg/kg
Adult male CF-1 mice [14]
  ED50 - low dose: 260 mg/kg
[15]
  ED50 - low dose: 165 mg/kg

## CC[C@@H](C(N)=O)N1CCCC1=O [LEV, levetiracetam]
[5]
  Brain Dose Prop (AUC): 1.03
[16]; high dose i.p. (LEV 800 mg/kg), time test 0.25 h
  Efficacy in rats (number seizure protected /number tested): 0/4
[16]; high dose i.p. (LEV 800 mg/kg), time test 0.5 h
  Efficacy in rats (number seizure protected /number tested): 0/4
[16]; high dose i.p. (LEV 800 mg/kg), time test 1 h
  Efficacy in rats (number seizure protected /number tested): 0/4
[16]; high dose i.p. (LEV 800 mg/kg), time test 2 h
  Efficacy in rats (number seizure protected /number tested): 0/4
[16]; high dose i.p. (LEV 800 mg/kg), time test 4 h
  Efficacy in rats (number seizure protected /number tested): 0/4
[16]; high dose i.p. (LEV 800 mg/kg), time test 8 h
  Efficacy in rats (number seizure protected /number tested): 0/4
[16]; low dose i.p. (LEV 14 mg/kg), time test 0.25 h
  Efficacy in rats (number seizure protected /number tested): 0/4
[16]; low dose i.p. (LEV 14 mg/kg), time test 0.5 h
  Efficacy in rats (number seizure protected /number tested): 0/4
[16]; low dose i.p. (LEV 14 mg/kg), time test 1 h
  Efficacy in rats (number seizure protected /number tested): 0/4
[16]; low dose i.p. (LEV 14 mg/kg), time test 2 h
  Efficacy in rats (number seizure protected /number tested): 0/4
[16]; low dose i.p. (LEV 14 mg/kg), time test 4 h
  Efficacy in rats (number seizure protected /number tested): 0/4
[16]; low dose i.p. (LEV 14 mg/kg), time test 8 h
  Efficacy in rats (number seizure protected /number tested): 0/4
[16]; high dose LEV 800 mg/kg i.p.
  Seizure protection (in words): failed to protect
[16]; low dose LEV 14 mg/kg i.p.
  Seizure protection (in words): failed to protect
In vivo [6]
  Tmax: 15 min
  half-life: 103 min
In vivo [8]; Plasma t1/2
  half-life: 370 min
[9]
  Plasma Dose Prop (AUC): 0.55
  Plasma Dose Prop (Cmax): 0.500
[9]; ip
  Plasma t1/2: 191 min
[11]
  Brain Dose Prop (AUC): 0.56
[11]; ip
  Brain t1/2: 212 min
[12]
  Plasma Dose Prop (AUC): 1.27
  Plasma Dose Prop (Cmax): 1.00
[12]; ip
  Plasma t1/2: 123 min
In vivo [17]
  half-life: 265 min
Adult male CF-1 mice [13]; [22]
  Efficacy in mice (number seizure protected/number tested): 1/4
Adult male CF-1 mice [13]; [23]
  Efficacy in mice (number seizure protected/number tested): 1/4
Adult male CF-1 mice [13]; [24]
  Efficacy in mice (number seizure protected/number tested): 1/4
Adult male CF-1 mice [13]; [25]
  Efficacy in mice (number seizure protected/number tested): 1/4
Adult male CF-1 mice [13]; [26]
  Efficacy in mice (number seizure protected/number tested): 1/4
Adult male CF-1 mice [13]; [27]
  Efficacy in mice (number seizure protected/number tested): 0/4
Adult male CF-1 mice [13]; [28]
  Efficacy in mice (number seizure protected/number tested): 0/4
Adult male CF-1 mice [13]; [29]
  Efficacy in mice (number seizure protected/number tested): 0/4
Adult male CF-1 mice [13]; [30]
  Efficacy in mice (number seizure protected/number tested): 0/4
Adult male CF-1 mice [13]; [31]
  Efficacy in mice (number seizure protected/number tested): 0/4
Adult male CF-1 mice [13]; [32]
  Efficacy in mice (number seizure protected/number tested): 0/4
Adult male CF-1 mice [13]; [33]
  Efficacy in mice (number seizure protected/number tested): 0/4
Adult male CF-1 mice [13]; mice, high-dose LEV (500 mg/kg i.p.), within 4 hrs post-dose
  Protection against seizures: 25%
Adult male CF-1 mice [13]; [34]
  Seizure protection (in words): did not protect
rats
  TD50 - high dose: 800 mg/kg
mice; rotarod test, i.p.
  TD50 - high dose: 500 mg/kg
